Reference: patent US7902384B2, “Estrogenic-active compounds and application thereof” (National Taiwan University, priority 2008, dated 2011)
Several values for one entry are separate records, joined by “and”; a condition that tells them apart may be missing. Equal values may be shown once.

Legend:
GAL4-hERβ [1] = target: T1, GAL4-hERβ (Homo sapiens, UniProt Q92731); assay: Estrogenic activity assay: GAL4-hERβ LBD / (UAS)4-ALP reporter in transfected CHO-k1 cells, single addition of sample; type: cell-based; set-up: expressed in transfected cells; host or cells: CHO-k1 (Chinese hamster cells); settings: for EC50: read-out: EC50 for ERβ (converted); for ERβ versus ERα selectivity of activation: comparison of ERα and ERβ reporter activation
Excerpt: (§1) First, a method for assessing the estrogenic activity in the field samples was established. This method comprises: preparing a cell line transfected with plasmids which can screen estrogenic activity substances. […] The reporter gene in the plasmid was expressed when the sample to be assayed contains estrogenic activity. Among them, the samples to be assayed in the examples of the invention include Loliolide, (4S,6S)-4-Hydroxy-6-nonadecyl-tetrahydro-pyran-2-one, (4R,6S)-4-Hydroxy-6-nonadecyl-tetrahydro-pyran-2-one. […] The details of establishing the assessing method are described as follows: […]

GAL4-hERβ [2] = target: T1, GAL4-hERβ; assay: Estrogenic activity assay with co-addition of 1 nM 17β-estradiol (antagonism or synergistic agonism), GAL4-hERβ reporter in CHO-k1 cells; settings: co-added with 1 nM 17β-estradiol, vs single addition of estrogen, p<0.05
Excerpt: (§2) Plasmid pBKCMV containing GAL4hERα (or ERβ) ligand binding domain (LBD) chimeric receptors and plasmid containing (UAS)4-alkaline phosphatase (ALP) reporter gene were co-transfected into Chinese hamster cells (CHO-k1). Compounds with estrogenic activity would interact with estrogen-specific ER to induce the binding of GAL4 and upstream activation sequence (UAS) specifically to initiate the expression of ALP gene. Therefore, the ALP activity can be used to determine whether the samples to be assayed have the estrogenic activity.
(§3) Cells in high confluence were plated onto 96-well culture plate the day before transfection. The plate was then washed to remove the serum during the day of transfection, followed by addition of two plasmid DNA, GAL4-hERα and (UAS)4-ALP in the ratio of 5:1, or GAL4-hERβ and (UAS)4-ALP in the ratio of 4:1, together with Lipofectamine™ 2000 transfection agent and culture medium to form DNA-liposome complex for 5 h.
(§4) The sample to be assayed was added into the medium of transfected cells and cultivated for 2 days.

GAL4-hERα [3] = target: T2, GAL4-hERα (Homo sapiens, UniProt P03372); assay: Estrogenic activity assay: GAL4-hERα LBD / (UAS)4-ALP reporter in transfected CHO-k1 cells, single addition of sample; type: cell-based; set-up: expressed in transfected cells; host or cells: CHO-k1 (Chinese hamster cells); settings: for EC50: read-out: EC50 for ERα (converted)
T2 sequence (P03372 311-547 limits assumed): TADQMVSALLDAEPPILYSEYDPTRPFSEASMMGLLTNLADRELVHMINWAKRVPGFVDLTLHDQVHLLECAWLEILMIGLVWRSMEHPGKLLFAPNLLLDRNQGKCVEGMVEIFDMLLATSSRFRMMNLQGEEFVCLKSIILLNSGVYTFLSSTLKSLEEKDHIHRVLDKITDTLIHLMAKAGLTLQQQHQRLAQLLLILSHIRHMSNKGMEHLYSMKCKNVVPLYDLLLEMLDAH
Excerpt: as §1

GAL4-hERα [4] = target: T2, GAL4-hERα; assay: Estrogenic activity assay with co-addition of 1 nM 17β-estradiol (antagonism or synergistic agonism), GAL4-hERα reporter in CHO-k1 cells; settings: co-added with 1 nM 17β-estradiol, vs single addition of estrogen, p<0.05
Excerpt: as §2, §3, §4

[5] = ALP reporter, CHO-k1, single addition

T1 sequence (Q92731 264-498 limits assumed): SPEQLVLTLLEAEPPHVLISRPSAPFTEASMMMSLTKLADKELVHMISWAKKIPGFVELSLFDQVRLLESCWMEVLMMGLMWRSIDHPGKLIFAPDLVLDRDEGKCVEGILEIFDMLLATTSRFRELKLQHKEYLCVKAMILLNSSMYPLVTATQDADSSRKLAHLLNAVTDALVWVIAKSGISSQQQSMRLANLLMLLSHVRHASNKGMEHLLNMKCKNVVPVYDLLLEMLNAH

concentration at which maximal activation of ERβ activity was achieved (GAL4-hERβ [1]; [5]) [µg/mL] | EC50 (GAL4-hERβ [1]; [5]) | ERβ versus ERα selectivity of activation (GAL4-hERβ [1]) | concentration at which activation of ERβ due to estrogen was significantly decreased (GAL4-hERβ [2]) | concentration at which maximal activation of ERα activity was achieved (GAL4-hERα [3]) [µg/mL] | EC50 (GAL4-hERα [3]) [µM] | concentration at which activation of ERα due to estrogen was significantly decreased (GAL4-hERα [4]) | concentration at which maximal activation of the estrogenic activity was achieved (ERβ) (GAL4-hERβ [1]; [5]) [µM] | concentration at which maximal activation of the estrogenic activity was achieved (ERα) (GAL4-hERα [3]) [µM] | SMILES
10 | 4.68 µM | better activation efficiency in ERβ | 2 µg/mL | 10 | 16.2 | 1 µg/mL | – | – | CCCCCCCCCCCCCCCCCCC[C@H]1C[C@H](O)CC(=O)O1 [(4S,6S)-4-Hydroxy-6-nonadecyl-tetrahydro-pyran-2-one]
10 | 8.94 µM | better activation efficiency in ERβ | 2 µg/mL | 20 | – | 2 µg/mL | – | – | CCCCCCCCCCCCCCCCCCC[C@H]1C[C@@H](O)CC(=O)O1 [(4R,6S)-4-Hydroxy-6-nonadecyl-tetrahydro-pyran-2-one]
20 | 17.9 µM and 18 µM | better activation efficiency in ERβ | 204 µM | 20 | 54.2 | 10.1 µM | 102.0 | 102.0 | CC1(C)C[C@H](O)C[C@@]2(C)OC(=O)C=C12 [Loliolide]
